# Measured values as given in article PMC4942819 (Scientific Reports, 2016).
# System: H37Rv
# Experiment: microbe, parasite or virus in culture
# Assay type: cell-based, Mycobacterium tuberculosis
# Details: for MIC: Mycobacterium tuberculosis, H37RV, read-out: MIC, strain H37Rv; for MIC, strain H37Rv: Table 2 prints no unit, test range in method b43 in μg/mL
smiles,measurement,value
"CC1COc2c(N3CCN(C)CC3)c(F)cc3c(=O)c(C(=O)O)cn1c23 (stereo not shown) [OFLX, ofloxacin]",MIC,0.5 µg/mL
"[H]/N=C(/N)N[C@H]1[C@H](O)[C@@H](O)[C@H](O[C@@H]2O[C@@H](C)[C@](O)(C=O)[C@H]2O[C@@H]2O[C@@H](CO)[C@H](O)[C@@H](O)[C@@H]2NC)[C@@H](N/C(N)=N\[H])[C@@H]1O [SM, streptomycin]",MIC,1 µg/mL
"NC[C@H]1O[C@H](O[C@H]2[C@H](O)[C@@H](O[C@H]3O[C@H](CO)[C@@H](O)[C@H](N)[C@H]3O)[C@H](N)C[C@@H]2N)[C@H](O)[C@@H](O)[C@@H]1O [KM, kanamycin]","MIC, strain H37Rv",1 µg/mL
"NCC[C@H](O)C(=O)N[C@@H]1C[C@H](N)[C@@H](O[C@H]2O[C@H](CN)[C@@H](O)[C@H](O)[C@H]2O)[C@H](O)[C@H]1O[C@H]1O[C@H](CO)[C@@H](O)[C@H](N)[C@H]1O [AMK, amikacin]",MIC,0.5 µg/mL
"COc1c(N2C[C@@H]3CCCN[C@@H]3C2)c(F)cc2c(=O)c(C(=O)O)cn(C3CC3)c12 [MOX, moxifloxacin]",MIC,0.06 µg/mL
"CC[C@@H](CO)NCCN[C@@H](CC)CO [EMB, ethambutol]",MIC,1 µg/mL
"CO[C@H]1/C=C/O[C@@]2(C)Oc3c(C)c(O)c4c(O)c(c(/C=N/N5CCN(C)CC5)c(O)c4c3C2=O)NC(=O)/C(C)=C\C=C\[C@H](C)[C@H](O)[C@@H](C)[C@@H](O)[C@@H](C)[C@H](OC(C)=O)[C@@H]1C [RMP, rifampicin]",MIC,< 0.03 µg/mL
"NNC(=O)c1ccncc1 [INH, isoniazid]",MIC,0.03 µg/mL
"C[C@H]1COc2c(N3CCN(C)CC3)c(F)cc3c(=O)c(C(=O)O)cn1c23 [LVFX, levo-ofloxacin]","MIC, strain H37Rv",0.25 µg/mL
"O=[N+]([O-])c1cc(C(F)(F)F)cc2c(=S)nc(N3CCC4(CC3)OCCO4)sc12 [SKLB-TB1001, 8-nitro-2-(1,4-dioxa-8-azaspiro[4.5]decan-8-yl)-6-(trifluoromethyl)-4H-benzo[e][1,3]thiazine-4-thione]",MIC,< 0.0156 µg/mL
